{
  "source": "patent US4659734A",
  "about": "“Olinecarboxylic acid derivatives” (Nippon Shinyaku Co., Ltd., priority 1983, dated 1987)",
  "key": {"Acute toxicity": {"assay": "Acute toxicity", "conditions": "mouse, in vivo; oral, groups of ten ddY male mice; read-out: 50% Lethal Doses (LD50)", "experimental": "Groups of ten ddY strain male mice (body weights: 20±1 grams) of the test compound were orally administered to determine the LD50. There was […] in which many mice died when the dose was 2000 mg/kg or less."}, "[1]": {"assay": "Excretion into urine and recovery, disc method", "assay_type": "in vivo, ddY strain mice", "conditions": "60 mg/kg per os; for Amount excreted into Urine: average ± standard error", "experimental": "In the measurement of excretion into urine, ddY strain mice (male; body weights 30±2 grams) were used. Sixty mg/kg of the compound of Example 22b was administered per os and the mice were fed in metabolic cages and their urine was collected.\nTherefore, in the quantitative determination, the calibration curve of the compound of Example 21, calculated by the disc method using Escherichia coli NIHJ strain and using the compound dissolved in phosphoric acid buffer (pH 8.0; 1/15M) was used. Table 5 reports the excretion into urine with respect to time, total recovery amount and recovery rate of the compound of Example 22b."}, "[2]": {"test_system": "Pseudomonas aeruginosa E-2", "assay": "Ascending urinary tract infection", "assay_type": "in vivo, ICR female mice", "experimental": "ICR Female mice (body weight 20±1 grams) of SPE strain were used in the experiments. The mice were not given any water for seventeen hours, then compulsorily urinated, anesthesized by the administration of 60 mg/kg of pentobarbital into the abdominal cavity, then 1.5×10^5 of Pseudomonas aeruginosa E-2 strain were impregnated into the bladder via the urinary tract, and the external urinary meatus was stopped for four hours by a pin clip, whereupon the mice were infected in the ascending urinary tract.\nThe compound of Example 22b was given once orally, 4 hours after infection, then twice a day, and the administration was continued for three days. On the fourth day, the kidney was isolated, homogenized in a physiological saline solution, and the number of bacteria was calculated on suitable medium such as, for example, Drigalski medium. If the number of bacteria per one gram of kidney was less than […], then the compound was judged as \"effective\"."}, "[3]": {"assay": "Blood serum concentration, disc method", "assay_type": "in vivo, ddY strain mice", "experimental": "In this experiment, ddY strain mice (male; body weight 30±2 grams) were used. Sixty mg/kg of the compound of Example 22b were given per os. The blood concentration was calculated from calibration curves obtained by the disc method using Escherichia coli NIHJ strain as tested bacteria and diluting the test compound of mice serum."}, "[4]": {"test_system": "Pseudomonas aeruginosa No. 12", "assay": "Minimum growth inhibiting concentration, Japan Chemotherapeutic Society method", "assay_type": "cell-based", "conditions": "Pseudomonas aeruginosa No. 12, Gram -; read-out: Minimum Growth Inhibiting Concn", "experimental": "(§1) The Antibacterial activity of the compounds of Examples 14, 13, 22b, 21 and 15 was determined in accordance with the method of Japan Chemotherapeutic Society (cf. Nippon Kagaku Ryoho Gakkai Shi, volume 29, number 1, pages 76 to 79, 1981) and the results are reported in Table 1, which follows."}, "[5]": {"test_system": "Listeria monocytogenes RIMD 1205020", "assay": "Minimum growth inhibiting concentration, Japan Chemotherapeutic Society method", "assay_type": "cell-based", "conditions": "RIMD1205020; Listeria monocytogenes RIMD 1205020, Gram +; read-out: Minimum Growth Inhibiting Concn", "experimental": "as §1"}, "[6]": {"test_system": "Pseudomonas maltophilia ATCC 13637", "assay": "Minimum growth inhibiting concentration, Japan Chemotherapeutic Society method", "assay_type": "cell-based", "conditions": "Stenotrophomonas maltophilia, ATCC13637; Pseudomonas maltophilia ATCC 13637, Gram -; read-out: Minimum Growth Inhibiting Concn", "experimental": "as §1"}, "[7]": {"test_system": "Acinetobacter calcoacelicus 54", "assay": "Minimum growth inhibiting concentration, Japan Chemotherapeutic Society method", "assay_type": "cell-based", "conditions": "Acinetobacter calcoacelicus 54, Gram -; read-out: Minimum Growth Inhibiting Concn", "experimental": "as §1"}, "[8]": {"test_system": "Klebsiella pneumoniae K-1966", "assay": "Minimum growth inhibiting concentration, Japan Chemotherapeutic Society method", "assay_type": "cell-based", "conditions": "K1966; Klebsiella pneumoniae K-1966, Gram -; read-out: Minimum Growth Inhibiting Concn", "experimental": "as §1"}, "[9]": {"test_system": "Alcaligenes faecalis ATCC 8750", "assay": "Minimum growth inhibiting concentration, Japan Chemotherapeutic Society method", "assay_type": "cell-based", "conditions": "ATCC8750; Alcaligenes faecalis ATCC 8750, Gram -; read-out: Minimum Growth Inhibiting Concn", "experimental": "as §1"}, "Escherichia coli KC-14": {"test_system": "Escherichia coli KC-14", "assay": "Minimum growth inhibiting concentration, Japan Chemotherapeutic Society method", "assay_type": "cell-based", "conditions": "KC14; Escherichia coli KC-14, Gram -; read-out: Minimum Growth Inhibiting Concn", "experimental": "as §1"}, "Proteus mirabilis 181": {"test_system": "Proteus mirabilis 181", "assay": "Minimum growth inhibiting concentration, Japan Chemotherapeutic Society method", "assay_type": "cell-based", "conditions": "Proteus mirabilis 181, Gram -; read-out: Minimum Growth Inhibiting Concn", "experimental": "as §1"}, "[10]": {"test_system": "Micrococcus luteus ATCC 9341", "assay": "Minimum growth inhibiting concentration, Japan Chemotherapeutic Society method", "assay_type": "cell-based", "conditions": "ATCC9341; Micrococcus luteus ATCC 9341, Gram +; read-out: Minimum Growth Inhibiting Concn", "experimental": "as §1"}, "Proteus vulgaris DX-19": {"test_system": "Proteus vulgaris DX-19", "assay": "Minimum growth inhibiting concentration, Japan Chemotherapeutic Society method", "assay_type": "cell-based", "conditions": "DX19; Proteus vulgaris DX-19, Gram -; read-out: Minimum Growth Inhibiting Concn", "experimental": "as §1"}, "[11]": {"test_system": "Staphylococcus aureus 209-PJC", "assay": "Minimum growth inhibiting concentration, Japan Chemotherapeutic Society method", "assay_type": "cell-based", "conditions": "Gram +, read-out: Minimum Growth Inhibiting Concn", "experimental": "as §1"}, "[12]": {"test_system": "Escherichia coli NIHJ JC-2", "assay": "Minimum growth inhibiting concentration, Japan Chemotherapeutic Society method", "assay_type": "cell-based", "conditions": "NIHJJC2; Escherichia coli NIHJ JC-2, Gram -; read-out: Minimum Growth Inhibiting Concn", "experimental": "as §1"}, "[13]": {"test_system": "Pseudomonas aeruginosa E-2", "assay": "Minimum growth inhibiting concentration, Japan Chemotherapeutic Society method", "assay_type": "cell-based", "conditions": "E2; Pseudomonas aeruginosa E-2, Gram -; read-out: Minimum Growth Inhibiting Concn", "experimental": "as §1"}, "[14]": {"test_system": "Staphylococcus aureus Smith", "assay": "Minimum growth inhibiting concentration, Japan Chemotherapeutic Society method", "assay_type": "cell-based", "conditions": "Gram +, read-out: Minimum Growth Inhibiting Concn", "experimental": "as §1"}, "[15]": {"test_system": "Serracia marcescens IFO 3736", "assay": "Minimum growth inhibiting concentration, Japan Chemotherapeutic Society method", "assay_type": "cell-based", "conditions": "Serracia marcescens IFO 3736, Gram -; read-out: Minimum Growth Inhibiting Concn", "experimental": "as §1"}, "[16]": {"test_system": "Pseudomonas cepacia ATCC 25416", "assay": "Minimum growth inhibiting concentration, Japan Chemotherapeutic Society method", "assay_type": "cell-based", "conditions": "Burkholderia cepacia, ATCC25416; Pseudomonas cepacia ATCC 25416, Gram -; read-out: Minimum Growth Inhibiting Concn", "experimental": "as §1"}},
  "note": "“Also recorded” adds a separate entry of the source.",
  "data": [
    {"compound": "Cc1csc2c(C(=O)O)c(=O)c3cc(F)c(N4CCN(C)CC4)cc3n12", "note": "[Example 22b, 7-fluoro-1-methyl-8-(4-methyl-1-piperazinyl)-5-oxo-5H-thiazolo(3,2-a)-quinoline-4-carboxylic acid]", "values": [
      {"measurement": "LD50", "setting": "Acute toxicity", "value": "> 2000", "unit": "mg/kg"},
      {"measurement": "Amount excreted into Urine", "setting": "[1]; 0-3 hrs", "value": "268.1 ± 84.4", "unit": "µg"},
      {"measurement": "Total Recovery in urine", "setting": "[1]; 0-24 hrs", "value": 813.9, "unit": "µg"},
      {"measurement": "excretion into urine (in words)", "setting": "[1]; mice", "value": "excreted into urine almost completely; also recorded: excreted into urine promptly and in high concentration which is continued and exhibits high recovery rate"},
      {"measurement": "metabolism (in words)", "setting": "[1]; mice", "value": "metabolized to the compound of Example 21"},
      {"measurement": "Amount excreted into Urine", "setting": "[1]; 3-6 hrs", "value": "108.3 ± 33.1", "unit": "µg"},
      {"measurement": "Amount excreted into Urine", "setting": "[1]; 6-24 hrs", "value": "437.5 ± 21.8", "unit": "µg"},
      {"measurement": "Number Of Mice Where Compound Was Effective/Total Mice Tested", "setting": "[2]; 3.13 mg/kg oral", "value": "1/7"},
      {"measurement": "Number Of Mice Where Compound Was Effective/Total Mice Tested", "setting": "[2]; 6.25 mg/kg oral", "value": "4/7"},
      {"measurement": "Number Of Mice Where Compound Was Effective/Total Mice Tested", "setting": "[2]; 12.5 mg/kg oral", "value": "4/7"},
      {"measurement": "Number Of Mice Where Compound Was Effective/Total Mice Tested", "setting": "[2]; 25 mg/kg oral", "value": "6/7"},
      {"measurement": "Number Of Mice Where Compound Was Effective/Total Mice Tested", "setting": "[2]; 50 mg/kg oral", "value": "7/7"},
      {"measurement": "Number Of Mice Where Compound Was Effective/Total Mice Tested", "setting": "[2]; 100 mg/kg oral, 4 h after infection then twice a day, three days", "value": "7/7"},
      {"measurement": "ED50", "setting": "[2]; Pseudomonas aeruginosa, E2, in Mus musculus, 72 h, ascending urinary tract infection, oral, three days, read-out: 50% Effective Dose", "value": 8, "unit": "mg/kg"},
      {"measurement": "concentration at 0.25 h", "setting": "[3]; mouse, serum, po, 0.25 hours, 60 mg/kg per os, average ± standard error", "value": "3400 ± 820", "unit": "ng/mL"},
      {"measurement": "concentration at 0.5 h", "setting": "[3]; mouse, serum, po, 0.5 hours, 60 mg/kg per os, average ± standard error", "value": "5400 ± 320", "unit": "ng/mL"},
      {"measurement": "concentration at 1 h", "setting": "[3]; mouse, serum, po, 1 hour, 60 mg/kg per os, average ± standard error", "value": "4200 ± 700", "unit": "ng/mL"},
      {"measurement": "concentration at 2 h", "setting": "[3]; mouse, serum, po, 2 hours, 60 mg/kg per os, average ± standard error", "value": "3300 ± 370", "unit": "ng/mL"},
      {"measurement": "concentration at 4 h", "setting": "[3]; mouse, serum, po, 4 hours, 60 mg/kg per os, average ± standard error", "value": "2500 ± 230", "unit": "ng/mL"},
      {"measurement": "blood concentration (in words)", "setting": "[3]; oral, mice", "value": "promptly gave high and sustained blood concentrations when administered orally"},
      {"measurement": "MIC", "setting": "[4]", "value": 0.78, "unit": "µg/mL"},
      {"measurement": "MIC", "setting": "[5]", "value": 0.2, "unit": "µg/mL"},
      {"measurement": "MIC", "setting": "[6]", "value": 0.025, "unit": "µg/mL"},
      {"measurement": "MIC", "setting": "[7]", "value": 0.2, "unit": "µg/mL"},
      {"measurement": "MIC", "setting": "[8]", "value": 0.05, "unit": "µg/mL"},
      {"measurement": "MIC", "setting": "[9]", "value": 0.78, "unit": "µg/mL"},
      {"measurement": "MIC", "setting": "Escherichia coli KC-14", "value": 0.013, "unit": "µg/mL"},
      {"measurement": "MIC", "setting": "Proteus mirabilis 181", "value": 0.2, "unit": "µg/mL"},
      {"measurement": "MIC", "setting": "[10]", "value": 0.78, "unit": "µg/mL"},
      {"measurement": "MIC", "setting": "Proteus vulgaris DX-19", "value": 0.1, "unit": "µg/mL"},
      {"measurement": "MIC", "setting": "[11]", "value": 0.013, "unit": "µg/mL"},
      {"measurement": "MIC", "setting": "[12]", "value": 0.025, "unit": "µg/mL"},
      {"measurement": "MIC", "setting": "[13]", "value": 0.39, "unit": "µg/mL"},
      {"measurement": "MIC", "setting": "[14]", "value": 0.053, "unit": "µg/mL"},
      {"measurement": "MIC", "setting": "[15]", "value": 0.39, "unit": "µg/mL"},
      {"measurement": "MIC", "setting": "[16]", "value": 0.2, "unit": "µg/mL"}
    ]}
  ]
}
